Assay results published in patent US20200030269A1, “ANIMAL FEED COMPOSITIONS OF ABSCISIC ACID” (Valent BioSciences LLC, priority 2010, published 2020).
“And” between values parts separate entries of the source, which are not always exact repeats. Equal entries are not always repeated.

Experiments:
Assay type in all cases: in vivo
Male Cobb 500 chickens [1] = assay: Example 1 broiler feeding study: cumulative bird mortality after 42 days
Description: (§1) Male Cobb 500 chickens were fed different levels of S-ABA supplemented into starter, grower, and finisher feed diets for their entire 42 day commercial life cycle. On day 43, samples of chickens (sometimes referred to as “birds”) from each treatment were processed.
(§2) The starter, grower, and finisher basal diets represented standard commercial broiler diets. The starter and grower diets contained Salinomycin (a coccidiostat) at 40 grams/ton. The basal diets and final treatment diets were prepared using a 500 or 4,000 pound capacity vertical mixer or a 14,000 pound capacity horizontal mixer. After correcting for percent purity of S-ABA in the S-ABA dry powder, S-ABA was added to the basal diets at concentrations of 5, 50, or 500 ppm (4.6, 46, or 455 grams of S-ABA/ton). Control treatments included (1) commercial diet only and (2) commercial diet supplemented with antibiotics (bacitracin methylene disalicylate (BMD), and STAFAC® virginiamycin (hereinafter “Stafac”). STAFAC is a registered trademark of Phibro Animal Health Corporation). All feed diets were pelleted at ˜65° C. or below.
(§3) A 90-pen test facility was divided into 10 blocks containing 9 pens per block. Treatments were assigned to the pens using a complete randomized block design. Birds were assigned to the pens randomly. Specific treatment groups were as follows:
(§4) Starting on study day 0, any bird found dead or needing to be removed and sacrificed was weighed and necropsied. The probable cause of death and necropsy findings were recorded.

Male Cobb 500 chickens [2] = assay: Example 1 broiler feeding study: digestive tract weights at processing on day 43; settings: for Digestive Tract Weights, Mean Weight: dirty litter, day 43
Description: as §1, §2, §3
Four blocks (9 pens/block) were selected at random from each treatment. On day 42 all birds in the selected blocks were individually wing banded with a unique number. Prior to processing the birds were fasted for approximately 12 hours. Immediately after processing on day 43, digestive tract weights and Bursa of Fabricius organ weights were measured.

Male Cobb 500 chickens [3] = assay: Example 1 broiler feeding study: bird weights and feed conversion ratios; settings: for Adjusted Feed/Gain Ratio, mean / Bird Weight, mean / Feed/Gain Ratio, mean: 5 ppm S-ABA in feed, dirty litter
Description: as §1, §2, §3
Feed was provided ad libitum throughout the study via one handing, ˜17-inch diameter tube feeder per pen. Chick feeder trays were placed in each pen for approximately the first 4 days. Feed added and removed from pens was weighed and recorded from day 0 to day 42. Diet changes were conducted at the same time for all pens. The feeding period for each diet was as shown below:
Birds were weighed by pen at 0, 7, 14, 21, 28, 35, and 42 days of age. The feed remaining in each pen was weighed and recorded on study day 0, 7, 14, 21, 28, 35, and 42 days of age. The feed intake during days 0-7, 0-14, 0-21, 0-28, 0-35, and 0-42 was calculated.
Performance data was summarized by average weight per bird at each body weights measurement period. The average feed conversion was calculated for each respective body weight period using the total feed consumption in a pen divided by the total weight of surviving birds (i.e. days 0-7, 0-14, 0-21, etc.). Adjusted feed conversion was calculated using the total feed consumption in a pen divided by the total weight of surviving birds and weight of birds that died or were removed from that pen.

[4] = tested on: Male and female Cobb 500 chickens; assay: Example 2 broiler feeding study: cumulative bird mortality after 42 days
Description: Male and female Cobb 500 chickens were fed different levels of S-ABA supplemented into starter, grower, and finisher feed diets for their entire 42 days commercial life cycle.
The starter, grower, and finisher basal diets represented standard commercial broiler diets. The starter and grower diets contained Salinomycin (a coccidiostat) at 40 grams/ton. The basal diets and final treatment diets were prepared using a 500 or 4,000 pound capacity vertical mixer or a 14,000 pound capacity horizontal mixer. After correcting for percent purity of S-ABA in the S-ABA dry powder, S-ABA was added to the basal diets at concentrations of 2.5, 5.0, or 7.5 ppm (2.3, 4.6, or 6.8 grams of S-ABA/ton). Control treatments included (1) commercial diet only and (2) commercial diet supplemented with antibiotics (bacitracin methylene disalicylate and Stafac). All feed diets were pelleted at ˜65° C. or below.
A 108-pen test facility was divided into 18 blocks containing 6 pens per block. Treatments were assigned to the pens using a complete randomized block design. Birds were assigned to the pens randomly. Specific treatment groups were as follows:
as §4

[5] = commercial feed diet plus 5 ppm S-ABA, dirty litter, 42 days
[6] = 5 ppm S-ABA in commercial feed diet versus control 1

CC1=CC(=O)CC(C)(C)[C@@]1(O)/C=C/C(C)=C\C(=O)O [S-ABA, (S)-(+)-abscisic acid]
bird mortality compared to the control treatments (Male Cobb 500 chickens [1]; 5 ppm S-ABA in commercial feed diets, versus control 1 and BMD/Stafac control 2): significantly (P=0.05) lower bird mortality
Cumulative Bird Mortality After 42 Days: Died (Male Cobb 500 chickens [1]; [5]): 0
Cumulative Bird Mortality After 42 Days: Lived (Male Cobb 500 chickens [1]; [5]): 200
weight of digestive tracts compared to the commercial feed diets (control 1 and control 2) (Male Cobb 500 chickens [2]; S-ABA in the feed diet): increases the weight of digestive tracts
Digestive Tract Weights, Mean Weight (Male Cobb 500 chickens [2]; commercial feed diet plus 5 ppm S-ABA): 86.7 Grams
Digestive Tract Weights, Mean Weight (Male Cobb 500 chickens [2]; commercial feed diet plus 50 ppm S-ABA): 86.6 Grams
Digestive Tract Weights, Mean Weight (Male Cobb 500 chickens [2]; commercial feed diet plus 500 ppm S-ABA): 88.4 Grams
bird growth (weights) compared to the commercial feed diet (control 1) (Male Cobb 500 chickens [3]; 5 ppm S-ABA in commercial feed): increased bird growth (weights)
lowering of adjusted feed conversion ratios (corrected for number of surviving birds) (Male Cobb 500 chickens [3]; [6]): 1-2 points
reduction of feed conversion ratios (Male Cobb 500 chickens [3]; [6]): 1-4 points
Adjusted Feed/Gain Ratio, mean (Male Cobb 500 chickens [3]; Day 7): 1.4093
Bird Weight, mean (Male Cobb 500 chickens [3]; Day 7): 0.1445 kg
Feed/Gain Ratio, mean (Male Cobb 500 chickens [3]; Day 7): 1.4093
Adjusted Feed/Gain Ratio, mean (Male Cobb 500 chickens [3]; Day 14): 1.2854
Bird Weight, mean (Male Cobb 500 chickens [3]; Day 14): 0.3873 kg
Feed/Gain Ratio, mean (Male Cobb 500 chickens [3]; Day 14): 1.3400
Adjusted Feed/Gain Ratio, mean (Male Cobb 500 chickens [3]; Day 21): 1.3842
Bird Weight, mean (Male Cobb 500 chickens [3]; Day 21): 0.7899 kg
Feed/Gain Ratio, mean (Male Cobb 500 chickens [3]; Day 21): 1.4137
Adjusted Feed/Gain Ratio, mean (Male Cobb 500 chickens [3]; Day 28): 1.4517
Bird Weight, mean (Male Cobb 500 chickens [3]; Day 28): 1.4236 kg
Feed/Gain Ratio, mean (Male Cobb 500 chickens [3]; Day 28): 1.4584
Adjusted Feed/Gain Ratio, mean (Male Cobb 500 chickens [3]; Day 35): 1.5610
Bird Weight, mean (Male Cobb 500 chickens [3]; Day 35): 2.0919 kg
Feed/Gain Ratio, mean (Male Cobb 500 chickens [3]; Day 35): 1.5731
Adjusted Feed/Gain Ratio, mean (Male Cobb 500 chickens [3]; Day 42): 1.6691
Bird Weight, mean (Male Cobb 500 chickens [3]; Day 42): 2.7565 kg
Feed/Gain Ratio, mean (Male Cobb 500 chickens [3]; Day 42): 1.6861
survival rates compared to the commercial feed diet containing bacitracin methylene disalicylate and Stafac ([4]; ABA added to commercial feed diets, 42 days): higher survival rates
Cumulative Bird Mortality After 42 Days: Mortality ([4]; S-ABA 2.5 ppm in feed, Female, dirty litter): 2.4%
Cumulative Bird Mortality After 42 Days: Mortality ([4]; S-ABA 2.5 ppm in feed, Male, dirty litter): 4.1%
Cumulative Bird Mortality After 42 Days: Mortality ([4]; S-ABA 5.0 ppm in feed, Female, dirty litter (two treatment groups)): 0.4% and 1.9%
Cumulative Bird Mortality After 42 Days: Mortality ([4]; S-ABA 5.0 ppm in feed, Male, dirty litter (two treatment groups)): 2.9% and 3.5%
Cumulative Bird Mortality After 42 Days: Mortality ([4]; S-ABA 7.5 ppm in feed, Female, dirty litter): 2.2%
Cumulative Bird Mortality After 42 Days: Mortality ([4]; S-ABA 7.5 ppm in feed, Male, dirty litter): 3.8%
